Test results reported in patent US20070275936A1, “Formulations and Treatment Methods” (priority 1998, published 2007).

How the values were obtained:
Format in all cases: in vivo
HIV-1 viral RNA = test: Human HIV clinical protocol: viral load (bDNA); details: after three 5-day courses of intermittent dosing over 153 days
Protocol: Otherwise untreated patients with CD4 counts of ≧200/μL and HIV-1 viral RNA between 5,000 and 1,000,000 copies/mL (branched-DNA, version 3.0, Bayer, Tarrytown, N.Y.) provided informed consent and were enrolled into a Phase I/II dose-escalation study of the safety and efficacy of intramuscular injections of BrEA. The protocol was conducted in South Africa. In the first cohort, four patients received an initial injection of 1 mL (50 mg), followed by a safety and pharmocokinetic study for seven days, and then received five daily injections of 1 mL (50 mg). The second cohort of 8 patients was randomized in a 1:2 ratio to receive either 50 mg (1 mL) or 100 mg (2 mL) on the same schedule. […]
CD4 counts were assessed using a FACScount (BDIS), and viral loads were measured using the bDNA assay (Bayer). […]
Statistical analysis of changes in surface phenotypes, hematological, and viral parameters were performed by calculating the area under the curve (AUC) of the percentage difference from baselines (phenotype), percentage difference from the mean of screen and baseline values (hematology), or log10 change from the mean of screen and baseline values (plasma viral RNA) for individual patients. AUC were calculated using the actual number of days between analysis visits for each patient. […]

P. berghei = test: Survival of P. berghei infected mice given BrEA I.V. or S.C.; details: cyclodextrin formulation, all control animals dead by day 10
Protocol: In a similar protocol, mice are inoculated with a solution containing 1×10^7 erythrocytes/mL by I.V. injection. Two hours later give drug is delivered by I.V. injection. BrEA or another formula 1 compound is given (0.2 mL I.V. or S.C.) once a day for 4 days. Tail snips are used to obtain blood after the study. Mice infected with P. berghei were used to obtain infected cells. Parasites are harvested from cardiac mouse blood, and uninfected mice are infected using 0.2 ml of blood with 14% parasitaemia per mouse I.V. Two hours later, the first dose of BrEA (100 mg/kg I.V. or S.C.) is delivered to the infected animals. The BrEA formulation was a sterile solution containing 15 mg/mL of BrEA in 45% hydroxypropyl-β-cyclodextrin and 0.9% saline. At 1, 2, 3 and 4 days after the infection of the animals, BrEA (100 mg/kg I.V. or S.C.) is delivered to the infected animals.

Sprague Dawley rats = test: TNBS induced distal colitis in rats; details: day 14
Protocol: In another protocol formula 1 compounds were used in a similar animal model. Groups of 10 male Sprague Dawley rats (250-300 grams) were fasted for 24 hours before 2,4,6-trinitrobenzene sulfonic acid (TNBS) or saline challenge. This model presents a severe challenge to the animal's immune system. On Day 0, the rats were lightly anesthetized and a catheter inserted rectally into the colon such that the tip was 8 cm proximal to the anus. Distal colitis was induced by intra-colonic instillation of 0.5 mL of an ethanolic solution of TNBS (60 mg/mL ethanol 50% in water). The test substance, 7-oxodehydroepiandrosterone 20 mg/mL in vehicle or vehicle control was administered by subcutaneous injection (0.1 mL/injection) once a day for 6 days, the first dose being given 30 minutes after TNBS challenge. Sulfasalazine (30 mg/mL in 2% Tween 80 in distilled water) or vehicle control was administered orally (PO) once a day (10 mL/kg/day) for 7 days, the first two doses beginning 24 hours and 2 hours before […] challenge. Signs of diarrhea were recorded daily by examining the anal area. Animals were fasted for 24 hours prior to sacrifice on day 14 and the colon was removed and weighed. After gross observations of colonic tissues, 3 samples were taken from regions approximately 1, 3, and 8 cm proximal to the anus. If gross ulcers or inflammation were present, at least one sample was taken from the affected region. Before removal of the colon, signs of adhesion between the colon and other organs were recorded. […] Body weight, colon-to-body-weight ratio, and damage scores were assessed. Visible damage was scored on a 1-5 scale as follows: 0=No damage; 1=Localized hyperemia but no ulcers; 2=linear ulcers with no significant inflammation; 3=Linear ulcers with inflammation at one site; 4=Two or more sites of ulceration and/or inflammation; 5=Two or more major sites of ulceration and inflammation or one major site of ulceration and inflammation extending more than 1 cm along the length of the colon. […]

SMILES | change in viral load (HIV-1 viral RNA) | survival of infected mice (P. berghei; BrEA 100 mg/kg I.V. daily) | survival of infected mice (P. berghei; BrEA 100 mg/kg S.C. daily) | histopathology: inflammation / lesion frequency and severity versus controls (Sprague Dawley rats)
C[C@]12CC[C@H](O)C[C@@H]1CC[C@@H]1[C@@H]2CC[C@]2(C)C(=O)[C@H](Br)C[C@@H]12 [BrEA, 16α-bromo-3β-hydroxy-5α-androstane-17-one] | no overall decrease in viral load | No deaths occurred in the group receiving I.V. BrEA at day 30 | dead by Day 11 | appeared to be similar
C[C@]12CC[C@H](O)CC1=CC[C@@H]1[C@@H]2CC[C@]2(C)C(=O)CC[C@@H]12 [DHEA, dehydroepiandrosterone, reference compound] |  |  |  | appeared to be similar
